Assay results as given in patent US8378117B2 (priority 2005, dated 2013).
Where two headings read alike, the source gives them in different places.

Key:
[1] = molecular target: T1, CB2 receptor (Homo sapiens, UniProt P34972); experiment: Functional cell-based assay, CB2 receptor mediated change in CRE β-gal expression (SK-N-MC cells); settings: for EC50: SK-N-MC cells
T1 construct: expressed in transfected cells
Excerpt: The CB1 and CB2 receptors are G-protein coupled receptors (GPCR), which influence cell function via the Gi-protein. These receptors modulate the activity of intracellular adenylate cyclase, which in turn produces the intracellular signal messenger cyclic-AMP (cAMP).
At baseline, or during non-ligand bound conditions, these receptors are constitutively active and tonically suppress adenylate cyclase activity. The binding of an agonist causes further receptor activation and produces additional suppression of adenylate cyclase activity. The binding of an inverse agonist inhibits the constitutive activity of the receptors and results in an increase in adenylate cyclase activity.
By monitoring intracellular adenylate cyclase activity, the ability of compounds to act as agonists or inverse agonists can be determined.
Test compounds were evaluated in SK-N-MC cells which, using standard transfection procedures, were stably transfected with human cDNA for pcDNA3-CRE β-gal and pcDNA3 CB1 receptor (human) or pcDNA3 CB2 receptor (human). By expressing CRE β-gal, the cells produced β-galactosidase in response to CRE promoter activation by cAMP. Cells expressing CRE β-gal and either the human CB1 or CB2 receptor will produce less β-galactosidase when treated with a CB1/CB2 agonist and will produce more β-galactosidase when treated with a CB1/CB2 inverse agonist.
The cells were grown in 96-well plates under standard cell culture conditions at 37° C. in a 5% CO2 atmosphere and culture media (wherein the media was supplemented with 2 mM L-glutamine, […] sodium pyruvate, 10% FBS (fetal bovine serum) and antibiotics).
For cells expressing CRE β-gal and the CB2 receptor, CB2 agonists reduced β-galactosidase activity in a dose-dependent manner and CB2 inverse agonists increase β-galactosidase activity in a dose-dependent manner.
The change in forskolin induced β-galactosidase activity was determined by setting a vehicle treated cell's activity value at 100% and expressing the β-galactosidase activity measured in a corresponding compound treated cell as a percent of the vehicle treated cell activity.
The EC50 value for functional activity for compounds tested was calculated by linear regression and was obtained from studies in which varying compound concentrations were used.

[2] = molecular target: T2, CB1 receptor (Homo sapiens, UniProt P21554); experiment: cell-based; settings: forskolin induced β-galactosidase activity
T2 construct: expressed in transfected cells
In short: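 SK-N-MC cells stably co-expressing human CB1 and a CRE-β-galactosidase reporter; forskolin-induced β-gal activity measured after compound treatment, as % of vehicle-treated cells (100%). EC50 by linear regression from concentration series; otherwise % change at a single concentration.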

[3] = molecular target: T2, CB1 receptor; experiment: Binding assay for CB1 agonists or inverse agonists (SK-N-MC membranes, [3H]-CP-55,940); settings: for IC50: Cannabinoid CB1 Receptor Binding IC50, calculated by linear regression from percent inhibition at various test concentrations
In short: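 Membranes from SK-N-MC cells stably expressing human CB1 incubated with compound and [3H]-CP-55,940 ([…]) for 90 min at 30° C in Tris-HCl pH 7.5, MgCl2, EDTA, fatty-acid-free BSA. Non-specific binding defined with 10 uM WIN 55,212; filtration, scintillation count; IC50 by linear regression.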

[4] = molecular target: T1, CB2 receptor; experiment: Binding assay for CB2 agonists or inverse agonists (SK-N-MC membranes, [3H]-CP-55,940); settings: for IC50: Cannabinoid CB2 Receptor Binding IC50, calculated by linear regression from percent inhibition at various test concentrations; for inhibition at 0.2 µM: read-out: CB2 receptor binding percent inhibition, test concentration 0.2 μM (footnote 2)
In short: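 Membranes from SK-N-MC cells stably expressing human CB2 were incubated with radioligand and test compounds for 90 min at 30 °C in Tris-HCl buffer, pH 7.5, with MgCl2, EDTA and fatty-acid-free BSA. Filter-bound radioactivity was counted; IC50 was derived by linear regression of percent inhibition.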

[5] = CB2 Receptor Functional Agonist EC50, forskolin induced β-galactosidase activity
[6] = CB1 Receptor Functional Agonist EC50, SK-N-MC cells
[7] = read-out: CB1 receptor binding percent inhibition, test concentration 0.2 μM (footnote 2)

T1 sequence (P34972 whole entry): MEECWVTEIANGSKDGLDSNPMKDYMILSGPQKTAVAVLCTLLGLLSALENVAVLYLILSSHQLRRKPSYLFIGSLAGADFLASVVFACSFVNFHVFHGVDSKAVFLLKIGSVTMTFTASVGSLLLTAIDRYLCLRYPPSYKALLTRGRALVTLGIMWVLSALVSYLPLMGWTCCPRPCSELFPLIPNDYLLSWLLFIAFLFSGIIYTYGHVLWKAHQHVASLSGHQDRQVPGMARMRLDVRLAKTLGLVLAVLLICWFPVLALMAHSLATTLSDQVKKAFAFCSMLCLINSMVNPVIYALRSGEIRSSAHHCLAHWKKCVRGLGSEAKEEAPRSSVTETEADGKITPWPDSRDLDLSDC
T2 sequence (P21554 whole entry): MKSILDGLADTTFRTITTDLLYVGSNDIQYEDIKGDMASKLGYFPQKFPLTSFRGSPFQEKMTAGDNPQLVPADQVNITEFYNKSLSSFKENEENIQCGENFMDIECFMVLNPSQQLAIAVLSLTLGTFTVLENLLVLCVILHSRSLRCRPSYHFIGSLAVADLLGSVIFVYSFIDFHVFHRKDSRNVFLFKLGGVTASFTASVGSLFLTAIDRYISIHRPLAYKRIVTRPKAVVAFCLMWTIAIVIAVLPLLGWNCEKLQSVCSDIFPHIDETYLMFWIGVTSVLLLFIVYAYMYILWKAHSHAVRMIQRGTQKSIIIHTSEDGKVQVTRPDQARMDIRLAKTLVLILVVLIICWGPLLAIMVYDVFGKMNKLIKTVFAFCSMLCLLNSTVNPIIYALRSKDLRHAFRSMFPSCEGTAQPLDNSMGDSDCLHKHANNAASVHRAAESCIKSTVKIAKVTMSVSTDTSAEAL

**Q.** For COC[C@@H](NC(=O)c1n[nH]c2c1CCCC[C@@H]2Cc1cccc(Cl)c1)c1ccccc1 (stereo in doubt) [Cpd 251, (8R*)-(3-chloro-benzyl)-1,4,5,6,7,8-hexahydro-cycloheptapyrazole-3-carboxylic acid [(1S)-2-methoxy-1-phenyl-ethyl]-amide], which EC50 [1, 5] is on record?
**A.** 3 nM

**Q.** What about the EC50 [2, 6] of the same molecule?
**A.** 410 nM

**Q.** How did the EC50 [1, 5] turn out when COC[C@@H](NC(=O)c1n[nH]c2c1CCCC[C@H]2Cc1cccc(Cl)c1)c1ccccc1 (stereo in doubt) [Cpd 252, (8S*)-(3-chloro-benzyl)-1,4,5,6,7,8-hexahydro-cycloheptapyrazole-3-carboxylic acid [(1S)-2-methoxy-1-phenyl-ethyl]-amide] was run?
**A.** 19 nM

**Q.** What about the EC50 [2, 6] of the same molecule?
**A.** > 5000 nM

**Q.** COC[C@H](NC(=O)c1n[nH]c2c1CCCC[C@H]2Cc1cccc(Cl)c1)c1ccccc1 (stereo in doubt) [Cpd 253, (8S*)-(3-chloro-benzyl)-1,4,5,6,7,8-hexahydro-cycloheptapyrazole-3-carboxylic acid [(1R)-2-methoxy-1-phenyl-ethyl]-amide] was tested. Which EC50 [1, 5] did it give?
**A.** 200 nM

**Q.** What about the EC50 [2, 6] of the same molecule?
**A.** > 5000 nM

**Q.** With COC[C@H](NC(=O)c1n[nH]c2c1CCCC[C@@H]2Cc1cccc(Cl)c1)c1ccccc1 (stereo in doubt) [Cpd 254, (8R*)-(3-chloro-benzyl)-1,4,5,6,7,8-hexahydro-cycloheptapyrazole-3-carboxylic acid [(1R)-2-methoxy-1-phenyl-ethyl]-amide] as the molecule, how does the EC50 [1, 5] read?
**A.** 2 nM

**Q.** What about the EC50 [2, 6] of the same molecule?
**A.** 80 nM

**Q.** Which IC50 [3] does the source give for C[C@@H](NC(=O)c1n[nH]c2c1CCCC/C2=C\c1ccc(Cl)cc1)c1ccccc1 [Cpd 142, (8E)-8-(4-chloro-benzylidene)-1,4,5,6,7,8-hexahydro-cycloheptapyrazole-3-carboxylic acid [(1R)-1-phenyl-ethyl]-amide] here?
**A.** 10 nM

**Q.** And the inhibition at 0.2 µM ([3]; read-out: CB1 receptor binding percent inhibition)?
**A.** 83%

**Q.** And the “CB2 receptor change in functional activity” value ([1]; one compound concentration, forskolin induced β-galactosidase activity)?
**A.** 1%

**Q.** What about the “CB2 receptor binding percent inhibition” value ([4]; test concentration 0.2 μM (footnote 2)) of the same molecule?
**A.** ^(2)98%

**Q.** With O=C(N[C@@H](CO)c1ccccc1)c1n[nH]c2c1CCCC/C2=C\c1ccc(Cl)cc1 [Cpd 234, (8E)-8-(4-chloro-benzylidene)-1,4,5,6,7,8-hexahydro-cycloheptapyrazole-3-carboxylic acid [(1R)-2-hydroxy-1-phenyl-ethyl]-amide] as the molecule, how does the IC50 [3] read?
**A.** 20 nM

**Q.** What about the inhibition at 0.2 µM [3, 7] of the same molecule?
**A.** 87%

**Q.** What about the EC50 [1, 5] of the same molecule?
**A.** 5 nM

**Q.** What about the EC50 [2, 6] of the same molecule?
**A.** 8 nM

**Q.** What about the IC50 [4] of the same molecule?
**A.** 60 nM

**Q.** What about the inhibition at 0.2 µM [4] of the same molecule?
**A.** 93%

**Q.** How did the IC50 [3] turn out when COC(=O)[C@H](Cc1ccc(F)cc1)NC(=O)c1n[nH]c2c1CCCC/C2=C\c1ccc(Cl)cc1 [Cpd 238, (8E)-(2S)-2-{[8-(4-chloro-benzylidene)-1,4,5,6,7,8-hexahydro-cycloheptapyrazole-3-carbonyl]-amino}-3-(4-fluoro-phenyl)-propionic acid methyl ester] was run?
**A.** 30 nM

**Q.** What about the inhibition at 0.2 µM [3, 7] of the same molecule?
**A.** 85%

**Q.** And the EC50 [1, 5]?
**A.** 1 nM

**Q.** And the EC50 [2, 6]?
**A.** 150 nM

**Q.** And the IC50 [4]?
**A.** 10 nM

**Q.** What about the inhibition at 0.2 µM [4] of the same molecule?
**A.** 93%

**Q.** O=C(N[C@@H](CO)c1ccccc1)c1n[nH]c2c1CCCC/C2=C\c1cccc(Cl)c1 [Cpd 239, (8E)-8-(3-chloro-benzylidene)-1,4,5,6,7,8-hexahydro-cycloheptapyrazole-3-carboxylic acid [(1R)-2-hydroxy-1-phenyl-ethyl]-amide] was tested. Which IC50 [3] did it give?
**A.** 30 nM

**Q.** And the inhibition at 0.2 µM [3, 7]?
**A.** 80%

**Q.** And the EC50 [1, 5]?
**A.** 0.6 nM

**Q.** And the EC50 [2, 6]?
**A.** 20 nM

**Q.** What about the IC50 [4] of the same molecule?
**A.** 20 nM

**Q.** And the inhibition at 0.2 µM [4]?
**A.** 91%

**Q.** COC(=O)[C@H](Cc1ccc(F)cc1)NC(=O)c1n[nH]c2c1CCCC/C2=C\c1cccc(Cl)c1 [Cpd 240, (8E)-(2S)-2-{[8-(3-chloro-benzylidene)-1,4,5,6,7,8-hexahydro-cycloheptapyrazole-3-carbonyl]-amino}-3-(4-fluoro-phenyl)-propionic acid methyl ester] was tested. Which IC50 [3] did it give?
**A.** 200 nM

**Q.** What about the inhibition at 0.2 µM [3, 7] of the same molecule?
**A.** 35%

**Q.** And the EC50 [1, 5]?
**A.** 13 nM

**Q.** What about the EC50 [2, 6] of the same molecule?
**A.** 1600 nM

**Q.** What about the IC50 [4] of the same molecule?
**A.** 40 nM

**Q.** And the inhibition at 0.2 µM [4]?
**A.** 78%

**Q.** With COC(=O)[C@H](Cc1ccc(F)cc1)NC(=O)c1nn(C)c2c1CCCC/C2=C\c1cccc(F)c1 [Cpd 241, (8E)-(2S)-2-{[8-(3-fluoro-benzylidene)-1-methyl-1,4,5,6,7,8-hexahydro-cycloheptapyrazole-3-carbonyl]-amino}-3-(4-fluoro-phenyl)-propionic acid methyl ester] as the molecule, how does the IC50 [3] read?
**A.** 200 nM

**Q.** What about the inhibition at 0.2 µM [3, 7] of the same molecule?
**A.** 33%

**Q.** What about the EC50 [1, 5] of the same molecule?
**A.** 18 nM

**Q.** And the EC50 [2, 6]?
**A.** 2800 nM

**Q.** And the IC50 [4]?
**A.** 100 nM

**Q.** What about the inhibition at 0.2 µM [4] of the same molecule?
**A.** 62%

**Q.** For Cn1nc(C(=O)N[C@@H](CO)c2ccccc2)c2c1/C(=C/c1cccc(F)c1)CCCC2 [Cpd 242, (8E)-8-(3-fluoro-benzylidene)-1-methyl-1,4,5,6,7,8-hexahydro-cycloheptapyrazole-3-carboxylic acid [(1R)-2-hydroxy-1-phenyl-ethyl]-amide], which IC50 [3] is on record?
**A.** 20 nM

**Q.** And the inhibition at 0.2 µM [3, 7]?
**A.** 80%

**Q.** What about the EC50 [1, 5] of the same molecule?
**A.** 11 nM

**Q.** What about the EC50 [2, 6] of the same molecule?
**A.** 30 nM

**Q.** And the IC50 [4]?
**A.** 100 nM

**Q.** What about the inhibition at 0.2 µM [4] of the same molecule?
**A.** 50%

**Q.** How did the IC50 [3] turn out when Cn1nc(C(=O)N[C@H](CO)Cc2ccc(O)cc2)c2c1/C(=C/c1cccc(F)c1)CCCC2 [Cpd 244, (8E)-(2S)-8-(3-fluoro-benzylidene)-1-methyl-1,4,5,6,7,8-hexahydro-cycloheptapyrazole-3-carboxylic acid [1-hydroxymethyl-2-(4-hydroxy-phenyl)-ethyl]-amide] was run?
**A.** 100 nM

**Q.** And the inhibition at 0.2 µM [3, 7]?
**A.** 68%

**Q.** And the EC50 [1, 5]?
**A.** 5 nM

**Q.** What about the EC50 [2, 6] of the same molecule?
**A.** 600 nM

**Q.** What about the IC50 [4] of the same molecule?
**A.** 20 nM

**Q.** And the inhibition at 0.2 µM [4]?
**A.** 78%

**Q.** Which IC50 [3] does the source give for COC(=O)[C@@H](Cc1ccc(F)cc1)NC(=O)c1n[nH]c2c1CCCC/C2=C\c1cccc(Cl)c1 [Cpd 245, (8E)-(2R)-2-{[8-(3-chloro-benzylidene)-1,4,5,6,7,8-hexahydro-cycloheptapyrazole-3-carbonyl]-amino}-3-(4-fluoro-phenyl)-propionic acid methyl ester] here?
**A.** 6 nM

**Q.** What about the inhibition at 0.2 µM [3, 7] of the same molecule?
**A.** 68%

**Q.** And the EC50 [1, 5]?
**A.** 1 nM

**Q.** And the EC50 [2, 6]?
**A.** 80 nM

**Q.** What about the IC50 [4] of the same molecule?
**A.** 2 nM

**Q.** What about the inhibition at 0.2 µM [4] of the same molecule?
**A.** 93%

**Q.** COC(=O)[C@@H](Cc1ccc(F)cc1)NC(=O)c1n[nH]c2c1CCCC/C2=C\c1ccc(Cl)cc1 [Cpd 247, (8E)-(2R)-2-{[8-(4-chloro-benzylidene)-1,4,5,6,7,8-hexahydro-cycloheptapyrazole-3-carbonyl]-amino}-3-(4-fluoro-phenyl)-propionic acid methyl ester] was tested. Which IC50 [3] did it give?
**A.** 2 nM

**Q.** What about the inhibition at 0.2 µM [3, 7] of the same molecule?
**A.** 91%

**Q.** What about the EC50 [1, 5] of the same molecule?
**A.** 4 nM

**Q.** What about the EC50 [2, 6] of the same molecule?
**A.** 8 nM

**Q.** What about the IC50 [4] of the same molecule?
**A.** 1 nM

**Q.** And the inhibition at 0.2 µM [4]?
**A.** 96%

**Q.** Which results are given for Cn1nc(C(=O)N[C@H](CCO)c2ccccc2)c2c1/C(=C/c1cccc(F)c1)CCCC2 [Cpd 249, (8E)-8-(3-fluoro-benzylidene)-1-methyl-1,4,5,6,7,8-hexahydro-cycloheptapyrazole-3-carboxylic acid [(1R)-3-hydroxy-1-phenyl-propyl]-amide]?
**A.** EC50 [1, 5]: 47 nM; EC50 [2, 6]: > 5000 nM

**Q.** Which results are given for O=C(N[C@H](CCO)c1ccccc1)c1n[nH]c2c1CCCC/C2=C\c1cccc(Cl)c1 [Cpd 250, (8E)-8-(3-chloro-benzylidene)-1,4,5,6,7,8-hexahydro-cycloheptapyrazole-3-carboxylic acid [(1R)-3-hydroxy-1-phenyl-propyl]-amide]?
**A.** EC50 ([1]; forskolin induced β-galactosidase activity, read-out: CB2 Receptor Functional Agonist EC50): 130 nM; EC50 ([2]; SK-N-MC cells, read-out: CB1 Receptor Functional Agonist EC50): > 5000 nM
